Results published in patent US4676822A, “Fluid fertilizers containing thiophosphoryl triamide” (Tennessee Valley Authority, priority 1986, dated 1987).

Columns and labels:
[1] = compared with PPDA; cited from earlier work
[2] = Stability of TPTA in solid mixtures with urea (HPLC); format: physicochemical; settings: solid 90% urea-10% TPTA, P(H2O) 12.73 mm Hg
Experimental: Solid samples (0.25 g) of urea-TPTA mixtures (90 weight percent urea-10 weight precent TPTA) were weighed into a 10-mL beaker, carefully spread into an even layer in the bottom of the beaker, and heated in a forced draft oven at temperatures of 42°, 50°, and 60° C. Samples were contained in desiccators inside the oven, each desiccator conataining a sodium hydroxide solution to yield a partial pressure of water of 12.73 mm Hg at the temperature employed. After heating, the samples were analyzed by High Performance Liquid Chromatography (HPLC) to determine the percent of the original TPTA remaining.
The calculated decomposition rate for 25° C., which was determined from an Arrhenius plot of the 42°, 50°, and 60° C. data are also illustrated in FIG. 2, supra. From a perusal of FIG. 2 it is clearly evident that the shelf life of urea-TPTA mixtures is of extremely short duration.

SMILES: NP(N)(N)=S [TPTA, thiophosphoryl triamide]
- stability in urea melt [1]: substantially more stable in urea melt than PPDA
- % of original TPTA remaining ([2]; 42° C., heating time 0.00 hr): 100.00%
- % of original TPTA remaining ([2]; 42° C., heating time 2.00 hr): 94.78%
- % of original TPTA remaining ([2]; 42° C., heating time 4.00 hr): 83.48%
- % of original TPTA remaining ([2]; 42° C., heating time 5.00 hr): 79.80%
- % of original TPTA remaining ([2]; 42° C., heating time 7.00 hr): 60.03%
- % of original TPTA remaining ([2]; 42° C., heating time 9.0 hr): 53.44%
- % of original TPTA remaining ([2]; 42° C., heating time 9.75 hr): 42.06%
- % of original TPTA remaining ([2]; 42° C., heating time 14.25 hr): 30.69%
- % of original TPTA remaining ([2]; 42° C., heating time 16.00 hr): 8.69%
- % of original TPTA remaining ([2]; 42° C., heating time 18.00 hr): 5.11%
- % of original TPTA remaining ([2]; 50° C., heating time 0.00 hr): 100.00%
- % of original TPTA remaining ([2]; 50° C., heating time 1.01 hr): 97.17%
- % of original TPTA remaining ([2]; 50° C., heating time 2.00 hr): 93.80%
- % of original TPTA remaining ([2]; 50° C., heating time 3.00 hr): 85.92%
- % of original TPTA remaining ([2]; 50° C., heating time 4.00 hr): 71.31%
- % of original TPTA remaining ([2]; 50° C., heating time 5.00 hr): 53.40%
- % of original TPTA remaining ([2]; 50° C., heating time 6.00 hr): 34.26%
- % of original TPTA remaining ([2]; 50° C., heating time 7.00 hr): 23.40%
- % of original TPTA remaining ([2]; 50° C., heating time 8.00 hr): 10.56%
- % of original TPTA remaining ([2]; 60° C., heating time 0.00 hr): 100.00%
- % of original TPTA remaining ([2]; 60° C., heating time 1.00 hr): 94.07%
- % of original TPTA remaining ([2]; 60° C., heating time 2.00 hr): 71.98%
- % of original TPTA remaining ([2]; 60° C., heating time 3.00 hr): 32.26%
- % of original TPTA remaining ([2]; 60° C., heating time 4.00 hr): 3.46%
- % of original TPTA remaining ([2]; 60° C., heating time 5.00 hr): 0.00%
- % of original TPTA remaining ([2]; 60° C., heating time 6.00 hr): 0.00%
